Where “and” joins values, the source holds several entries; their conditions need not be identical. Identical values can stand only once.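 Results reflect a 48-hour exposure of cells in 96-well plates to compound at five concentrations. Here, GI50 denotes the concentration required for 50% inhibition of growth. The concentration for full growth arrest is given as TGI.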
Legend:
Assay in all cases: NCI tumour cell line growth inhibition, 48 h
[1] = test system: A498 renal
[2] = test system: NCI-H460 lung
[3] = test system: OVCAR-3 ovarian
[4] = test system: HL-60(TB) leukemia
[5] = test system: TK-10 renal
[6] = test system: SN12C renal
[7] = test system: RPMI-8226 leukemia
[8] = test system: M14 melanoma
[9] = test system: OVCAR-8 ovarian
[10] = test system: MALME-3M melanoma

SMILES | TGI [1] | TGI [2] | TGI [3] | TGI [4] | TGI [5] | TGI [6] | TGI [7] | TGI [8] | TGI [9] | TGI [10] | GI50 [1] | GI50 [2] | GI50 [3] | GI50 [4] | GI50 [5] | GI50 [6] | GI50 [7] | GI50 [8] | GI50 [9] | GI50 [10]
CC1=CCC2(C#N)CCC1C2=O (stereo not given) | > 100 µM | > 100 µM | > 100 µM | > 100 µM | > 100 µM | > 100 µM | > 100 µM | > 100 µM | > 100 µM | > 100 µM |  |  |  |  |  |  |  |  |  | 
O=C1C=C(Br)C(=O)C(Br)=C1 | > 100 µM | > 100 µM | > 100 µM | 54.9 µM | > 100 µM | > 100 µM | > 82.2 µM | > 100 µM | > 100 µM | > 100 µM |  |  |  |  |  |  |  |  |  | 
O=C1C(Nc2ccccn2)=C(I)C(=O)c2ncccc21 | 2.74 µM | 1.1 µM | 1.6 µM | 3.77 µM | 3.65 µM | 2.56 µM | 3.73 µM | 2.6 µM | 5.87 µM | 2.54 µM | 1.26 µM | 0.295 µM | 0.378 µM | 1.63 µM | 1.87 µM | 0.889 µM | 1.19 µM | 1.18 µM | 1.29 µM | 1.27 µM
CC(=O)N1c2ccccc2C23CCN4CC5=CCOC(O)C(C5CC42)C13 (stereo not given) | > 100 µM | > 100 µM | > 100 µM | > 100 µM | > 100 µM | > 100 µM | > 100 µM | > 100 µM | > 100 µM | > 100 µM |  |  |  |  |  |  |  |  |  | 
COC(=O)C(C(=O)C(=O)Nc1ccccc1OC)c1csc(-n2nc(-c3ccccc3)cc2-c2ccccc2)n1 (stereo not given) | > 100 µM | > 100 µM | > 100 µM | > 100 µM | > 100 µM | > 100 µM | > 100 µM | > 100 µM | > 100 µM | > 100 µM |  |  |  |  |  |  |  |  |  | 
CC/C(=C(\c1ccc(O)cc1)c1ccc(OCCNC)cc1)c1ccccc1 | 10.2 µM and 4.12 µM and 8.67 µM | 3.67 µM and 3.45 µM and 3.66 µM | 4.11 µM and 3.16 µM and 3.9 µM | 4.43 µM and 4.07 µM and 5.44 µM | 5.5 µM and 3.89 µM and 6.26 µM | 8.84 µM and 9.58 µM and 10.4 µM | 5.05 µM and 4.58 µM and 5.73 µM | 3.25 µM and 3.24 µM and 3.63 µM | 6.66 µM and 5.28 µM and 5.78 µM | 3.49 µM and 3.29 µM and 3.5 µM | 2.33 µM and 1.84 µM | 1.98 µM and 1.83 µM and 1.89 µM | 2.09 µM and 1.72 µM and 1.97 µM | 1.88 µM and 1.89 µM and 2.39 µM | 2.39 µM and 1.88 µM and 2.56 µM | 1.98 µM and 2.86 µM and 3.02 µM | 2.08 µM and 1.99 µM and 2.27 µM | 1.8 µM and 1.75 µM and 1.86 µM | 2.6 µM and 2.18 µM and 2.4 µM | 1.76 µM and 1.66 µM and 1.82 µM
CC(NC1CCC[C@H]1O)c1ccccc1 (mixture of isomers) | > 100 µM | > 100 µM | > 100 µM | > 100 µM | > 100 µM | > 100 µM | > 100 µM | > 100 µM | > 100 µM | > 100 µM |  |  |  |  |  |  |  |  |  | 
CC(=O)O[C@H]1CCC2[C@@H]3CCC4C(=O)c5oncc5C[C@]4(C)C3CC[C@@]21C (stereo not given in full) | > 100 µM | > 100 µM | > 100 µM | > 100 µM | > 100 µM | > 100 µM | > 100 µM | > 100 µM | > 100 µM | > 100 µM |  |  |  |  |  |  |  |  |  | 
C[C@]12CC[C@H]3[C@@H](C[C@@H]4SC(Nc5cccc(F)c5)=N[C@@]45CC(=O)CC[C@]35C)[C@@H]1CCC2=O | 6.77 µM | 5.58 µM | 3.3 µM | 8 µM | 4.15 µM | 6.02 µM | 3.9 µM | 7.23 µM | 7.98 µM | 5.04 µM | 2.16 µM | 2.52 µM | 1.72 µM | 2.73 µM | 1.97 µM | 2.36 µM | 0.865 µM | 2.36 µM | 2.79 µM | 1.94 µM
O=C(C#Cc1c[nH]c(=O)[nH]c1=O)c1ccccc1 | 29.1 µM | 28.6 µM | 5.99 µM | 14.3 µM | 26.7 µM | 15.9 µM | 30.1 µM | 18 µM | 22.4 µM | 15.2 µM |  |  |  |  |  |  |  |  |  | 
O=S(=O)(Nc1ccc(Cl)c(C(F)(F)F)c1)c1ccc(-c2cnc(C3CC3)o2)cc1 | 1.23 µM | 10 µM | 1.9 µM | 1.49 µM | 9.58 µM | 4.71 µM | 5.64 µM | 4.68 µM | > 36.2 µM | 4.41 µM | 0.0814 µM | 0.102 µM | 0.0393 µM | 0.261 µM | 1.8 µM | 1.05 µM | 1.35 µM | 0.276 µM | 1.54 µM | 0.624 µM
Cc1oc2c(c1C(=O)c1ccccc1)C(=O)c1ccccc1C2=O | 33.9 µM | 34.2 µM | 6.22 µM | 17.1 µM | 33.2 µM | 25.2 µM | 23.8 µM | 10.1 µM | 18.6 µM | 4.53 µM |  |  |  |  |  |  |  |  |  | 
O=C1CCC(=O)c2cc(Br)ccc2N1 | > 100 µM | > 100 µM | > 100 µM | > 100 µM | > 100 µM | > 100 µM | > 100 µM | > 100 µM | > 100 µM | > 100 µM |  |  |  |  |  |  |  |  |  | 
Nc1nc(N)c(-c2ccccc2)c(C(=O)Nc2ccc(Cl)c(Cl)c2)n1 | > 100 µM | > 100 µM | > 100 µM | > 100 µM | > 100 µM | > 100 µM | > 100 µM | > 100 µM | > 100 µM | > 100 µM |  |  |  |  |  |  |  |  |  | 
COC(=O)c1c2c(c(C)[n+]([O-])c1C)C(=O)C(NCc1ccc(F)c(Cl)c1)=CC2=O | 3.68 µM | 9.09 µM | 1.24 µM | 5.68 µM | 16 µM | 3.66 µM | 24.1 µM | 3.12 µM | 13.9 µM | 0.658 µM | 1.52 µM | 1.51 µM | 0.306 µM | 1.39 µM | 3.76 µM | 1.52 µM | 3.08 µM | 1.41 µM | 2.38 µM | 0.214 µM
CS(=O)(=O)c1ccc(C(F)(F)F)cc1NC(=O)Nc1cnc(Oc2ccc(-c3cc(Cl)cnc3N)cc2)nc1 | 5.09 µM | 4.42 µM | 4.67 µM | 5.75 µM | 6.92 µM | 5.26 µM | 6.53 µM | 4.8 µM | > 29 µM | 5.29 µM | 1.78 µM | 2.07 µM | 2.08 µM | 2.63 µM | 2.21 µM | 2.25 µM | 2.33 µM | 2.02 µM | 2.86 µM | 2.05 µM

From PubChem BioAssay (NCI)
